From patent publication US20090209541A1, “APREPITANT COMPOSITIONS” (Dr. Reddy's Laboratories Ltd., priority 2006, published 2009)
In brackets after ≈: the same amount, converted by molar mass.

Key:
[1] = Solubility of powder compositions of aprepitant at 25° C. in water (HPLC method); format: physicochemical; details: thermodynamic from solid
Method: Solubility of Powder Compositions of Aprepitant at 25° C. in Water
• A. Aprepitant: Neat aprepitant was passed through a BSS # 80 mesh sieve, and its solubility in water was determined using a HPLC method. • B. Aprepitant: PVP K30 (1:1 w/w) solid dispersion: 2 g aprepitant and 2 g PVP K 30 were dissolved in a mixture of 200 ml dichloromethane and 20 ml methanol. This solution was dried in a rotary flash evaporator at 50° C. The dried solid dispersion was passed through a BSS # 80 mesh sieve. • C. Premix of A and B (1:6 w/w): Neat aprepitant and solid dispersion from B was mixed in the weight proportions of 1:6. This mixture was passed through a BSS # 80 mesh sieve. • D. Premix of A and B (1:2 w/w): Neat aprepitant and solid dispersion from B was mixed in the weight proportions of 1:2. This mixture was passed through a BSS # 80 mesh sieve. • E. Premix of A and B (3:2 w/w): Neat aprepitant and solid dispersion from B was mixed in the weight proportions of 3:2. This mixture was passed through a BSS # 80 mesh sieve. • F. Aprepitant: Polysorbate 80 (1:1 w/w): 1 g aprepitant and 1 g polysorbate 80 were mixed together by trituration. […]
Injected blank once, standard solution, all sample preparations in different pH solutions each twice into the chromatographic system. Aprepitant solubility in mg/ml was calculated using following formula: […]

[2] = cited from earlier work
[3] = cited from earlier work; remark: listed apart in the source
[4] = U.S. Pat. Nos. 6,096,742 and 6,583,142; cited from earlier work

C[C@@H](O[C@H]1OCCN(Cc2n[nH]c(=O)[nH]2)[C@H]1c1ccc(F)cc1)c1cc(C(F)(F)F)cc(C(F)(F)F)c1 [A, Aprepitant]
solubility [1]: 0.5 µg/mL (≈ 0.936 µM)

C[C@@H](O[C@H]1OCCN(Cc2n[nH]c(=O)[nH]2)[C@H]1c1ccc(F)cc1)c1cc(C(F)(F)F)cc(C(F)(F)F)c1 [Aprepitant, 5-[[(2R,3S)-2-[(1R)-1-[3,5-bis(trifluoromethyl)phenyl]ethoxy]-3-(4-fluorophenyl)-4-morpholinyl]methyl]-1,2-dihydro-3H-1,2,4-triazol-3-one]
solubility in acetonitrile (descriptive) ([2]; acetonitrile): slightly soluble
solubility in ethanol (descriptive) ([2]; ethanol): sparingly soluble
solubility in isopropyl acetate (descriptive) ([2]; isopropyl acetate): sparingly soluble
solubility in water (descriptive) ([2]; water): practically insoluble
permeability characteristics [3]: poor permeability

C[C@@H](O[C@H]1OCCN(Cc2n[nH]c(=O)[nH]2)[C@H]1c1ccc(F)cc1)c1cc(C(F)(F)F)cc(C(F)(F)F)c1 [Form I, aprepitant]
solubility relative to Form II [4]: lower solubility as compared to Form II
thermodynamic stability relative to Form II [4]: thermodynamically more stable than Form II
